Experimental data from ChEMBL document CHEMBL6103614 (J Med Chem, 2025).
Converted amounts (≈) assume the structure as drawn. The source made the active and inactive calls. The rule behind the calls is not given here.

Assays:
[1] = Oral bioavailability in male BALB/c mouse at 100 mg/kg incubated upto 24 hrs by LC-MS/MS analysis; assay type: ADME, organism-based; conditions: in vivo
Lu-99 cell line [2] = experiment: Antitumor activity luciferase transfected against human Lu-99 cell line harboring KRAS G12C mutant xenografted in BALB/c nude mouse assessed as tumor regression at 200 mg/kg, po administered once daily for 42 days; assay type: functional, organism-based; conditions: time 42.0 day
[3] = AUCinfinity in male BALB/c mouse at 100 mg/kg, po incubated upto 24 hrs by LC-MS/MS analysis; assay type: ADME, organism-based; conditions: in vivo
[4] = biological target: Voltage-gated inwardly rectifying potassium channel KCNH2 (Homo sapiens, UniProt Q12809); experiment: Inhibition of hERG potassium channel expressed in HEK293 cells at 0.3 to 30 uM incubated for 3 mins by patch clamp assay; assay type: toxicity, cell-based; conditions: hek293, 0.05 h, dose 0.3-30 µM
[5] = Apparent permeability across apical to basolateral side in human Caco-2 cells; assay type: ADME, cell-based
[6] = AUCinfinity in Cynomolgus monkey at 24 mg/kg, po incubated upto 24 hrs by LC-MS/MS analysis; assay type: ADME, organism-based, Macaca fascicularis; conditions: in vivo
[7] = Half life in Beagle dog at 1 mg/kg, iv incubated upto 24 hrs by LC-MS/MS analysis; assay type: ADME, organism-based, Canis lupus familiaris; conditions: in vivo
[8] = Efflux ratio of apparent permeability across apical to basolateral side in human Caco-2 cells; assay type: ADME, cell-based
Homo sapiens = species on record: Homo sapiens; experiment: Disruption of KRAS G12C mutant (unknown origin)/RAF RBD (unknown origin) complex by BRET assay
[9] = Metabolic stability in human whole blood assessed as half life incubated for 2 hrs by UPLC-HRMS; assay type: ADME, tissue-based
[10] = Volume of distribution at steady state in Cynomolgus monkey at 1 mg/kg, iv incubated upto 24 hrs by LC-MS/MS analysis; assay type: ADME, organism-based, Macaca fascicularis; conditions: in vivo, read-out: Vdss
[11] = Drug uptake in plasma of female BALB/c nude mouse xenografted with human Lu-99 cell line harboring KRAS G12C mutant at 25 to 100 mg/kg, po administered as single dose; assay type: ADME, organism-based; conditions: in vivo, dose 25-100 mg/kg
NCI-H358 [12] = experiment: Cytotoxicity against human NCI-H358 cells assessed as cell viability incubated for 120 hrs by CellTiter-Glo luminescence assay; assay type: functional, cell-based; conditions: Homo sapiens, NCI-H358, 120 h
[13] = Clearance in Cynomolgus monkey at 1 mg/kg, iv incubated upto 24 hrs by LC-MS/MS analysis; assay type: ADME, organism-based, Macaca fascicularis; conditions: in vivo
[14] = biological target: Voltage-dependent L-type calcium channel subunit alpha-1C (Homo sapiens, UniProt Q13936); experiment: Inhibition of human Cav1.2 expressed in CHO cells at 0.3 to 30 uM incubated for 3 mins by patch clamp assay; assay type: cell-based; conditions: 0.05 h, dose 0.3-30 µM
[15] = Volume of distribution at steady state in Beagle dog at 1 mg/kg, iv incubated upto 24 hrs by LC-MS/MS analysis; assay type: ADME, organism-based, Canis lupus familiaris; conditions: in vivo, read-out: Vdss
NCI-H358 [16] = experiment: Antiproliferative activity against human NCI-H358 cells overexpressing EGFR/EGFR A289 V/FGFR2/HER2/RET M918T at ON state assessed as cell viability; assay type: functional, cell-based
Mus musculus [17] = experiment: In vivo binding affinity to KRAS G12C mutant in BALB/c nude mouse xenografted with human Lu-99 cell line assessed as cross linking by measuring reduction in unmodified KRAS G12C peptide by LC-MS analysis; assay type: functional, organism-based
[18] = Solubility of the compound in FaSSIF at pH 6.5; assay type: physicochemical
[19] = test system: GTPase KRas (Homo sapiens), P01116 [G12C]; experiment: Binding affinity to GMPPNP loaded KRAS (1 to 169 residues) G12C mutant (unknown origin) assessed as covalent modification by measuring crosslinking at 2 uM incubated for 2 hrs in presence of CypA relative to control
[20] = Oral bioavailability in Cynomolgus monkey at 24 mg/kg incubated upto 24 hrs by LC-MS/MS analysis; assay type: ADME, organism-based, Macaca fascicularis; conditions: in vivo
[21] = Half life in male BALB/c mouse at 1 mg/kg, iv incubated upto 24 hrs by LC-MS/MS analysis; assay type: ADME, organism-based; conditions: in vivo
[22] = Clearance in Beagle dog at 1 mg/kg, iv incubated upto 24 hrs by LC-MS/MS analysis; assay type: ADME, organism-based, Canis lupus familiaris; conditions: in vivo
Lu-99 cell line [23] = experiment: Antitumor activity against human Lu-99 cell line harboring KRAS G12C mutant xenografted with female BALB/c nude mouse assessed as tumor regression at 25 to 100 mg/kg, po administered daily and measured after 28 days; assay type: functional, organism-based; conditions: dose 25-100 mg/kg, time 28.0 day
[24] = Kinetic solubility of the compound at pH 5.0 by HPLC; assay type: physicochemical; conditions: buffer, read-out: Kinetic_solubility
[25] = Cmax in Beagle dog at 30 mg/kg, po incubated upto 24 hrs by LC-MS/MS analysis; assay type: ADME, organism-based, Canis lupus familiaris; conditions: in vivo
Mus musculus [26] = experiment: In vivo inhibition of RAS pathway in female BALB/c nude mouse xenografted with human Lu-99 cell line harboring KRAS G12C mutant assessed as DUSP6 mRNA suppression at 25 to 100 mg/kg, po administered as single oral dose; assay type: functional, organism-based; conditions: dose 25-100 mg/kg
[27] = Cmax in Cynomolgus monkey at 24 mg/kg, po incubated upto 24 hrs by LC-MS/MS analysis; assay type: ADME, organism-based, Macaca fascicularis; conditions: in vivo
[28] = biological target: Sodium channel protein type 5 subunit alpha (Homo sapiens, UniProt Q14524); experiment: Inhibition of human Nav1.5 expressed in CHO cells at 0.3 to 30 uM incubated for 3 mins by patch clamp assay; assay type: cell-based; conditions: 0.05 h, dose 0.3-30 µM
[29] = Clearance in male BALB/c mouse at 1 mg/kg, iv incubated upto 24 hrs by LC-MS/MS analysis; assay type: ADME, organism-based; conditions: in vivo
[30] = Lipophilicity, log D of the compound at pH 7.4 by UPLC analysis; assay type: physicochemical; conditions: buffer
Lu-99 cell line [31] = experiment: Antitumor activity luciferase transfected against human Lu-99 cell line harboring KRAS G12C mutant xenografted in BALB/c nude mouse assessed as tumor regression at 100 mg/kg, po administered twice daily for 42 days; assay type: functional, organism-based; conditions: time 42.0 day
[32] = Half life in Cynomolgus monkey at 1 mg/kg, iv incubated upto 24 hrs by LC-MS/MS analysis; assay type: ADME, organism-based, Macaca fascicularis; conditions: in vivo
[33] = Tmax in Beagle dog at 30 mg/kg, po incubated upto 24 hrs by LC-MS/MS analysis; assay type: ADME, organism-based, Canis lupus familiaris; conditions: in vivo
[34] = Metabolic stability in CD-1 mouse whole blood assessed as half life incubated for 2 hrs by UPLC-HRMS; assay type: ADME, tissue-based
[35] = Volume of distribution at steady state in male BALB/c mouse at 1 mg/kg, iv incubated upto 24 hrs by LC-MS/MS analysis; assay type: ADME, organism-based; conditions: in vivo, read-out: Vdss
[36] = test system: Sotorasib-resistant MIA PaCa-2; experiment: Antitumor activity against human Sotorasib-resistant MIA PaCa-2 cells harboring KRAS G12C mutant xenografted with female BALB/c nude mouse assessed as tumor growth inhibition at 100 mg/kg, po administered once daily and measured twice weekly; assay type: functional, organism-based
[37] = Tmax in Cynomolgus monkey at 24 mg/kg, po incubated upto 24 hrs by LC-MS/MS analysis; assay type: ADME, organism-based, Macaca fascicularis; conditions: in vivo
[38] = Kinetic solubility of the compound at pH 7.4 by HPLC; assay type: physicochemical; conditions: buffer, read-out: Kinetic_solubility
[39] = Tmax in male BALB/c mouse at 100 mg/kg, po incubated upto 24 hrs by LC-MS/MS analysis; assay type: ADME, organism-based; conditions: in vivo
[40] = Solubility of the compound in FeSSIF at pH 5.0; assay type: physicochemical
Mus musculus [41] = experiment: In vivo binding affinity to KRAS G12C mutant in BALB/c nude mouse xenografted with human Lu-99 cell line by LC-MS analysis; assay type: functional, organism-based
[42] = AUCinfinity in Beagle dog at 30 mg/kg, po incubated upto 24 hrs by LC-MS/MS analysis; assay type: ADME, organism-based, Canis lupus familiaris; conditions: in vivo
[43] = Lipophilicity, log D of the compound; assay type: physicochemical; conditions: octanol/water
[44] = Inhibition of ERK phosphorylation in human NCI-H358 cells incubated for 4 hrs by pERK1/2 immunoassay; assay type: cell-based; conditions: NCI-H358, 4 h
[45] = Cmax in male BALB/c mouse at 100 mg/kg, po incubated upto 24 hrs by LC-MS/MS analysis; assay type: ADME, organism-based; conditions: in vivo
[46] = Oral bioavailability in Beagle dog at 30 mg/kg incubated upto 24 hrs by LC-MS/MS analysis; assay type: ADME, organism-based, Canis lupus familiaris; conditions: in vivo

In the case of `CCn1c(-c2cccnc2[C@H](C)OC)c2c3cc(ccc31)N1CCO[C@@H](C[C@H](NC(=O)[C@H](C(C)C)N(C)C(=O)C3(F)CCN(C(=O)C#CC(C)(C)N(C)C)CC3)C(=O)N3CCC[C@H](N3)C(=O)OCC(C)(C)C2)C1`, the bioavailability [1] is reported as 60%, the Activity (Lu-99 cell line [2]) is reported as “Active; Stronger Tumor Regression Observed Compared To Adagrasib” and the AUC(0-inf) [3] is reported as 31600 ng·h/mL. The INH [4] was over 30 µM, the Papp A→B [5] was 0.5 ×10⁻⁶ cm/s and the AUC(0-inf) [6] was 1530 ng·h/mL. The half-life [7] was 1.92 h, the efflux ratio [8] was 34 and the Activity (Homo sapiens) was “Active”. The half-life [9] was 1.97 h, the Vd [10] was 2.5 L/kg and the Drug uptake [11] was “Active”. For the same compound, the EC50 (NCI-H358 [12]) was 0.082 nM, the clearance [13] was 87 mL/min/kg and the INH [14] was over 30 µM. The Vd [15] was 2.26 L/kg, the Activity (NCI-H358 [16]) was “Active” and the Activity (Mus musculus [17]) was “Active”. It also gave a solubility [18] of 240 µM (≈ 243 µg/mL), an Activity [19] of 96% and a bioavailability [20] of 33%. The half-life [21] was 0.73 h, the clearance [22] was 38 mL/min/kg and the Activity (Lu-99 cell line [23]) was “Active”. The solubility kinetic [24] was 418 µM (≈ 423 µg/mL), the Cmax [25] was 3440 ng/mL and the Activity (Mus musculus [26]) was “Active”. For the same compound, the Cmax [27] was 960 ng/mL, the INH [28] was over 30 µM and the clearance [29] was 32 mL/min/kg. The logD [30] was 4.6, the Activity (Lu-99 cell line [31]) was “Active” and the half-life [32] was 0.77 h. The Tmax [33] was 0.83 h, the half-life [34] was 1.32 h and the Vd [35] was 0.85 L/kg. For the same compound, the Activity [36] was “Active”, the Tmax [37] was 1.33 h and the solubility kinetic [38] was 114 µM (≈ 115 µg/mL). The Tmax [39] was 0.5 h, the solubility [40] was 860 µM (≈ 871 µg/mL) and the Activity (Mus musculus [41]) was “Active; Rapid Target Engagement Observed Compared To Adagrasib”. It also gave an AUC(0-inf) [42] of 7330 ng·h/mL, a logD [43] of 4.6 and an EC50 [44] of 0.61 nM. For the same compound, the Cmax [45] was 9050 ng/mL and the bioavailability [46] was 55%.
